What was measured:
CAR = CAR (Homo sapiens (Human), UniProt Q14994); experiment: Nuclear hormone receptor selectivity assay (GAL4-NHR-LBD luciferase, HEK293); assay type: cell-based
Experimental: (§1) In the assay system used, an activated GAL4-nuclear hormone receptor (NHR) fusion construct binds to an upstream activation sequence (UAS) and drives a luciferase reporter gene. […]
(§2) HEK293 cells were transfected with GAL4-NHR-LBD construct (pcDNA3.1neo) and the pGL4.31 GAL4-luciferase reporter construct (Promega) and incubated overnight at 37° C. and 5% CO2. After 16-24 hours, cells were harvested and plated at 20 μL (10,000 cells)/well in tissue-culture treated 384 well plate. […] Next, plates are spun briefly and incubated overnight at 37° C. and 5% CO2. […] In agonist mode, test compound was incubated directly with the cells. For receptors that are not constitutively active, a known agonist is also tested as a positive control.
(§3) After 16-24 hours, luciferase activity was measured. Plates and luciferase reagent (e.g. One-Glo® or Dual Glo®; Promega, Madison, Wis.) were brought to room temperature. Next, a 25 μL aliquot of luciferase reagent was added to each well. Plates were spun down briefly and incubated at room temperature for 10 minutes. The luciferase signal was measured on an Envision plate reader (Perkin Elmer) set to the ultra-sensitive luminescence setting.

FXR = FXR (Homo sapiens (Human), UniProt Q96RI1); experiment: as above; assay type: cell-based
Experimental: as §1, §2, §3

LXRα = LXRα (Homo sapiens (Human), UniProt Q13133); experiment: as above; assay type: cell-based
Experimental: as §1, §2, §3

LXRβ = LXRβ (Homo sapiens (Human), UniProt P55055); experiment: as above; assay type: cell-based
Experimental: as §1, §2, §3

PPARα = PPARα (Homo sapiens (Human), UniProt Q07869); experiment: as above; assay type: cell-based
Experimental: as §1, §2, §3

PPARβ = PPARβ (Homo sapiens (Human), UniProt Q03181); experiment: as above; assay type: cell-based
Experimental: as §1, §2, §3

PPARγ = PPARγ (Homo sapiens (Human), UniProt P37231); experiment: as above; assay type: cell-based
Experimental: as §1, §2, §3

PXR = PXR (Homo sapiens (Human), UniProt O75469); experiment: as above; assay type: cell-based; settings: agonist mode
Experimental: as §1, §2, §3

RARα = RARα (Homo sapiens (Human), UniProt P10276); experiment: as above; assay type: cell-based
Experimental: as §1, §2, §3

RARβ = RARβ (Homo sapiens (Human), UniProt P10826); experiment: as above; assay type: cell-based
Experimental: as §1, §2, §3

RARγ = RARγ (Homo sapiens (Human), UniProt P13631); experiment: as above; assay type: cell-based
Experimental: as §1, §2, §3

RORα = RORα (Homo sapiens (Human), UniProt P35398); experiment: as above; assay type: cell-based; settings: antagonist mode
Experimental: as §1, §2, §3

RORβ = RORβ (Homo sapiens (Human), UniProt Q92753); experiment: as above; assay type: cell-based; settings: antagonist mode
Experimental: as §1, §2, §3

RXRα = RXRα (Homo sapiens (Human), UniProt P19793); experiment: as above; assay type: cell-based
Experimental: as §1, §2, §3

TRα = TRα (Homo sapiens (Human), UniProt P10827); experiment: as above; assay type: cell-based
Experimental: as §1, §2, §3

TRβ = TRβ (Homo sapiens (Human), UniProt P10828); experiment: as above; assay type: cell-based
Experimental: as §1, §2, §3

VDR = VDR (Homo sapiens (Human), UniProt P11473); experiment: as above; assay type: cell-based
Experimental: as §1, §2, §3

[1] = tested on: BclxL gene expression in murine thymus; experiment: Murine thymic BclxL gene expression assay; assay type: in vivo, mouse; settings: female C57BL/6 mice, oral 0.1-30 mg/kg, thymus collected 2 hours after dosing, qPCR; FIG. 3
Experimental: Animals were euthanized with carbon dioxide (CO2) at 2 hours after dosing, and thymi were collected and immediately placed on ice before processing.
Thymus tissue samples were mashed with syringe plungers in a 48-well, flat-bottom tissue culture plate. Cells were suspended in 1 mL phosphate buffered saline (PBS), and passed through a Falcon 70 μM cell strainer into 50-mL centrifuge tubes. A 200 μL aliquot of cells from each sample were transferred into a 96-well, round-bottom plate. The plate was centrifuged at 1200 rpm and 4° C., flicked to remove supernatant, and the cell pellets were frozen at −80° C. until further processing.
Initial further processing consisted of ribonucleic acid (RNA) isolation and complementary deoxyribonucleic acid (cDNA) synthesis.

[2] = tested on: murine collagen-induced arthritis model; experiment: Murine collagen-induced arthritis model; assay type: in vivo, mouse; settings: female DBA/1J mice, oral 3, 10 or 30 mg/kg twice daily; FIG. 4
Experimental: Female DBA/1J mice (Jackson Laboratories, 7-8 weeks old) were received and allowed to acclimate for about one week. On the day of immunization, an emulsion was freshly prepared by homogenizing equal volumes of Complete Freund's Adjuvant (CFA, Chondrex #7001) and a collagen type-2 solution (bovine source, Chondrex #20022) using a tissue homogenizer, on ice. A volume of 0.1 mL of this emulsion was injected subcutaneously into the base of the tail of each mouse, which was lightly anesthetized with isoflurane. Mice recovered from anesthesia were allowed food and water ad libitum.
Eighteen days after immunization, the mice were injected intraperitoneally with 40 μg of lipopolysaccaride (LPS, Sigma#L4005) in 0.2 mL saline, in order to help synchronize the disease progression in all animals. Seven days after LPS injection, the mice were assessed for knee joint swelling by measurement of each knee joint using digital calipers and computing total joint circumference. The total knee joint circumference of the 4 knee joints was then used to randomize mice into treatment groups of equal average circumference.
This dosing continued twice daily at 8- and 16-hour intervals for the duration of the study. As a positive control, one group of mice received 25 mg/kg Jak inhibitor (JAKi) tofacitinib once per day. Joints were measured 2-3 times per week.

[3] = antagonist mode, reference agonist at EC80

Chain of LXRα (Q13133 209-447): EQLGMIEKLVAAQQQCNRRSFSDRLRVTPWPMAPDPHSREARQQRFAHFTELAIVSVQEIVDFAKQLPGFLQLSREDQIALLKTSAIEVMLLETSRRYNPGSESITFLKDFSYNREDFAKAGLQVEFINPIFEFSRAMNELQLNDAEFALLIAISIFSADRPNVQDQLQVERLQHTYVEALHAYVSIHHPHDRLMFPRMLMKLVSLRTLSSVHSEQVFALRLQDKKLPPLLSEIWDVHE
Chain of RARβ (P10826 183-417, species assumed): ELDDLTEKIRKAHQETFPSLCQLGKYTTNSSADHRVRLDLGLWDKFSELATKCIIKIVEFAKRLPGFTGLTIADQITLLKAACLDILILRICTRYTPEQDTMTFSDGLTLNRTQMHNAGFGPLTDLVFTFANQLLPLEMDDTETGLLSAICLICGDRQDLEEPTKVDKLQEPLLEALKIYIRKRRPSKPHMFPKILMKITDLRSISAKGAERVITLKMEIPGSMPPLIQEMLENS
Chain of RARγ (P13631 185-419, species assumed): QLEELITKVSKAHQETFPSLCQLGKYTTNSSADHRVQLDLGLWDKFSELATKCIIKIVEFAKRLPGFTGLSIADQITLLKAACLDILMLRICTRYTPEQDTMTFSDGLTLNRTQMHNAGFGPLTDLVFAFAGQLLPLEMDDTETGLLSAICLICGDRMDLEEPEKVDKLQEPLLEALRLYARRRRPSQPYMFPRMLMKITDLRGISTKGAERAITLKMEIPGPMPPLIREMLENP
Chain of TRα (P10827 other isoform, or with tags, fused parts or gaps isoform P10827-2): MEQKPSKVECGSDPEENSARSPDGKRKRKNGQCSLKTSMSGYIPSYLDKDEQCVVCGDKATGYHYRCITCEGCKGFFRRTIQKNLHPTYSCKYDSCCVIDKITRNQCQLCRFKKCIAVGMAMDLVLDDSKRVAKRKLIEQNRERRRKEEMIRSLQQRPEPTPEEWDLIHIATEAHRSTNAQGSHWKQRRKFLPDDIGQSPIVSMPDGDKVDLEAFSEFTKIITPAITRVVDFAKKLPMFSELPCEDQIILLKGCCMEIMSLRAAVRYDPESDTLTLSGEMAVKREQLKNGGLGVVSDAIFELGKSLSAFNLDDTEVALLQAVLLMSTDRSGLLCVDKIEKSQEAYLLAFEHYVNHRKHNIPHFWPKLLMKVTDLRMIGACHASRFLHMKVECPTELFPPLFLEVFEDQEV
Chain of FXR (Q96RI1 262-486, species assumed): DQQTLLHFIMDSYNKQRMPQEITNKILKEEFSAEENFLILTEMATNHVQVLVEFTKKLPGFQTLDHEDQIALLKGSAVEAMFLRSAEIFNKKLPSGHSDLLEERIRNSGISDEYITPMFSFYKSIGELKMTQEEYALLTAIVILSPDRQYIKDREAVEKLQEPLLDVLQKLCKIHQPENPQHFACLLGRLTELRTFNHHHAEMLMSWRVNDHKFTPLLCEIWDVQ
Chain of TRβ (P10828 217-461): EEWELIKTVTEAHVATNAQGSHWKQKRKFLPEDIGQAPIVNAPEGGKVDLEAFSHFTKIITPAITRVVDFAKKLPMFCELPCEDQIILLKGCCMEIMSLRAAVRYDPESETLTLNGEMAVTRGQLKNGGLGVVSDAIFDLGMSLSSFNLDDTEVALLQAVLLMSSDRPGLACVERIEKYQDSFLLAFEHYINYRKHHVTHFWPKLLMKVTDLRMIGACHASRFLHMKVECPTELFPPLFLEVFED
Chain of VDR (P11473 127-423, species assumed): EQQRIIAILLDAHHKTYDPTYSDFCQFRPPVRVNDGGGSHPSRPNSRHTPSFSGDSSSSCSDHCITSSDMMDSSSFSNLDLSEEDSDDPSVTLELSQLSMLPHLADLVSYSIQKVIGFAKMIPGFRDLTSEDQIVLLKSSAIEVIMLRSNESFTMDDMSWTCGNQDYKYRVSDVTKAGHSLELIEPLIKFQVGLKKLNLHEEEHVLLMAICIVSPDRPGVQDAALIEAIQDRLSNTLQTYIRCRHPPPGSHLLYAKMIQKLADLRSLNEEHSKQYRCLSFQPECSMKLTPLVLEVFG
Chain of LXRβ (P55055 222-460): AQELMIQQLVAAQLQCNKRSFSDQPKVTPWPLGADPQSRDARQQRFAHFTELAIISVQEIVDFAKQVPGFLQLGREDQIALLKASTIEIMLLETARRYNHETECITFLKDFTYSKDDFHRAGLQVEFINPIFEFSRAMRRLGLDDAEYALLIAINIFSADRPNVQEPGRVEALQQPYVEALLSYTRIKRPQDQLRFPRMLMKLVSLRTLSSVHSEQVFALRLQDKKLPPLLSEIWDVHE
Chain of CAR (Q14994 109-352): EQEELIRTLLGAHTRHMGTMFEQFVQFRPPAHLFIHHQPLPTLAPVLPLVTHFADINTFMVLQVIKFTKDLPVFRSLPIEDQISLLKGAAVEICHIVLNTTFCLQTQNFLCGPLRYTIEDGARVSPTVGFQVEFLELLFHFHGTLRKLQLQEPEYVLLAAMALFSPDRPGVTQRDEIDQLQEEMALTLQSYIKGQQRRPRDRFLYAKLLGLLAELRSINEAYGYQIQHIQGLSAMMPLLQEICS
Chain of PPARβ (Q03181 211-439, species assumed): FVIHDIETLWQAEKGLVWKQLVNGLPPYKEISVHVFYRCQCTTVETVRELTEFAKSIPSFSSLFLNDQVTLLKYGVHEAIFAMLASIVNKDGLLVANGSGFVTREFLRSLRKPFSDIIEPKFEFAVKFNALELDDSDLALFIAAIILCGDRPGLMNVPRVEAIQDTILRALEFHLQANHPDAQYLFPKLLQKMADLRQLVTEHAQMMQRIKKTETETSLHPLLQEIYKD
Chain of PPARγ (P37231 238-503, species assumed): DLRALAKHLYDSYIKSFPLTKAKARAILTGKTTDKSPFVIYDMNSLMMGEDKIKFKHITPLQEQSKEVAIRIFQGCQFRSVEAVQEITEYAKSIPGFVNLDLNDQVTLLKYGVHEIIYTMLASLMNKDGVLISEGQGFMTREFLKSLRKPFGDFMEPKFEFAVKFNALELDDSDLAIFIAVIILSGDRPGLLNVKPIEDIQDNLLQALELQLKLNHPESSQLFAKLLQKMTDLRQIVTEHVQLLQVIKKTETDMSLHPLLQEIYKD
Chain of RARα (P10276 183-417, species assumed): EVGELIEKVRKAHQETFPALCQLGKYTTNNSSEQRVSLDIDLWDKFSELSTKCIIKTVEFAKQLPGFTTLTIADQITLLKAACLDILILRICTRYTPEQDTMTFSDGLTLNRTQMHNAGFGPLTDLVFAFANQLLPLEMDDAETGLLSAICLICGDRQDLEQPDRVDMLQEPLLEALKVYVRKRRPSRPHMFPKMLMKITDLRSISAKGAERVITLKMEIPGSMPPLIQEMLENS
Chain of RXRα (P19793 227-458): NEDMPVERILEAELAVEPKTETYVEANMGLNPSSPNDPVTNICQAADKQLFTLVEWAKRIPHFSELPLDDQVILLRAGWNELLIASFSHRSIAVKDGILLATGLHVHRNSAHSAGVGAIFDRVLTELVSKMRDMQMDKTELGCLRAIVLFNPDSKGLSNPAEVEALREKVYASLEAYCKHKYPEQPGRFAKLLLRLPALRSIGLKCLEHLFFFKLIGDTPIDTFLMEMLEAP
Chain of PPARα (Q07869 239-466, species assumed): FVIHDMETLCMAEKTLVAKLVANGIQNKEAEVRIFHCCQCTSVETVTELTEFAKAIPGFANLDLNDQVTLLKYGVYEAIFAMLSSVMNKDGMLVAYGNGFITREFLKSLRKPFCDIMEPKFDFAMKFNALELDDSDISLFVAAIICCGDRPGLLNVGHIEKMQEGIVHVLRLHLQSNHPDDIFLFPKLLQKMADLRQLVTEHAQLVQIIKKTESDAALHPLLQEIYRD
Chain of RORβ (Q92753 222-460): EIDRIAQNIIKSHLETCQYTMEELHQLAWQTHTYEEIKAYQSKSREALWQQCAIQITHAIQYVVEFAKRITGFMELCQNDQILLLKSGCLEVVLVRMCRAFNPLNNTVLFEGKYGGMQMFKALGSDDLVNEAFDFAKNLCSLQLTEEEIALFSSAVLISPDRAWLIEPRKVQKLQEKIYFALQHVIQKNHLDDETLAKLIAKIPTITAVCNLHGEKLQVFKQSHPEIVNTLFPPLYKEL
Chain of RORα (P35398 272-510): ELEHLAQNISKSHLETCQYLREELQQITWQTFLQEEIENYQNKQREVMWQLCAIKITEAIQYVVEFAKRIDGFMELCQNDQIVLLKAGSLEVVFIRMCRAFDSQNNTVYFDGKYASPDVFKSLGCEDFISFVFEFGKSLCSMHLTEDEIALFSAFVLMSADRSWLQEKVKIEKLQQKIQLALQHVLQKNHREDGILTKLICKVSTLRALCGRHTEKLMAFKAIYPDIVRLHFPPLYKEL
Chain of PXR (O75469 146-433, species assumed): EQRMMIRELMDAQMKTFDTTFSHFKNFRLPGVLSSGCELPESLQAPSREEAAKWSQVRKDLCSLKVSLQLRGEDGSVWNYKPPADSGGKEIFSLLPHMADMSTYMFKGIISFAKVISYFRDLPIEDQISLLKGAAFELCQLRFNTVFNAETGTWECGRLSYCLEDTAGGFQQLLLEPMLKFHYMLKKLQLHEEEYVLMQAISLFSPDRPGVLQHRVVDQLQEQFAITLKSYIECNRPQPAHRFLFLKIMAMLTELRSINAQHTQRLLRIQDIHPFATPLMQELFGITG

`O=C(O)[C@@H]1CC=C(c2nn(C(=O)c3c(Cl)cccc3C3(C(F)(F)F)CC3)c3c2CC[C@@H](C(=O)N2CCC4(COC4)C2)C3)CC1` [Test Compound] showed an EC50 (CAR; agonist mode) greater than 10 µM, an IC50 (CAR; [3]) greater than 10 µM and an EC50 (FXR; agonist mode) greater than 10 µM. The IC50 (FXR; [3]) was greater than 10 µM, the EC50 (LXRα; agonist mode) was greater than 10 µM and the IC50 (LXRα; [3]) was greater than 10 µM. The EC50 (LXRβ; agonist mode) was greater than 10 µM, the IC50 (LXRβ; [3]) was greater than 10 µM and the EC50 (PPARα; agonist mode) was greater than 10 µM. The IC50 (PPARα; [3]) was greater than 10 µM, the EC50 (PPARβ; agonist mode) was greater than 10 µM and the IC50 (PPARβ; [3]) was greater than 10 µM. The IC50 (PPARγ; PPARγ, antagonist mode, reference agonist at EC80) was greater than 10 µM, the EC50 (PPARγ; read-out: Agonist Mode EC50) was 5.1 µM and the EC50 (PXR) was 8.2 µM. For the same compound, the EC50 (RARα; agonist mode) was greater than 10 µM, the IC50 (RARα; [3]) was greater than 10 µM and the EC50 (RARβ; agonist mode) was greater than 10 µM. The IC50 (RARβ; [3]) was greater than 10 µM, the EC50 (RARγ; agonist mode) was greater than 10 µM and the IC50 (RARγ; [3]) was greater than 10 µM. It also gave an IC50 (RORα) greater than 10 µM, an IC50 (RORβ) greater than 10 µM and an EC50 (RXRα; agonist mode) greater than 10 µM. For the same compound, the IC50 (RXRα; [3]) was greater than 10 µM, the EC50 (TRα; agonist mode) was greater than 10 µM and the IC50 (TRα; [3]) was 16 µM. For the same compound, the EC50 (TRβ; agonist mode) was greater than 10 µM, the IC50 (TRβ; [3]) was greater than 10 µM and the EC50 (VDR; agonist mode) was greater than 10 µM. The IC50 (VDR; [3]) was greater than 10 µM, the “expression of BclxL in murine thymus” value [1] was “dose-dependent decrease in the expression of BclxL in murine thymus” and the total joint circumference [2] was “dose-dependent decrease in total joint circumference”.
